# Data from patent US6787525B1, “Glyceryl nucleotides, method for the production thereof and their use” (priority 1998, dated 2004).
# Experiments:
# [1] = test system: SNB-19; assay: In vitro cytostatic effect (SRB): SNB-19, Cancer of the central nervous system; conditions: for GI50 / TGI: 48-hour incubation; for CC50: read-out: LC50, 48-hour incubation
# [2] = test system: K-562; assay: In vitro cytostatic effect (SRB): K-562, Leukemia; conditions: for GI50 / TGI: 48-hour incubation; for CC50: read-out: LC50, 48-hour incubation
# [3] = test system: SN12C; assay: In vitro cytostatic effect (SRB): SN12C, Kidney cancer; conditions: for GI50 / TGI: 48-hour incubation; for CC50: read-out: LC50, 48-hour incubation
# [4] = test system: HCT-116; assay: In vitro cytostatic effect (SRB): HCT-116, Intestinal cancer; conditions: for GI50 / TGI: 48-hour incubation; for CC50: read-out: LC50, 48-hour incubation
# [5] = test system: LOX IMVI; assay: In vitro cytostatic effect (SRB): LOX IMVI, Melanoma; conditions: for GI50 / TGI: 48-hour incubation; for CC50: read-out: LC50, 48-hour incubation
# [6] = test system: SF-539; assay: In vitro cytostatic effect (SRB): SF-539, Cancer of the central nervous system; conditions: for GI50 / TGI: 48-hour incubation; for CC50: read-out: LC50, 48-hour incubation
# [7] = test system: PC-3; assay: In vitro cytostatic effect (SRB): PC-3, Prostate cancer; conditions: for GI50 / TGI: 48-hour incubation; for CC50: read-out: LC50, 48-hour incubation
# [8] = test system: T-47D; assay: In vitro cytostatic effect (SRB): T-47D, Breast cancer; conditions: for GI50 / TGI: 48-hour incubation; for CC50: read-out: LC50, 48-hour incubation
# [9] = test system: MOLT-4; assay: In vitro cytostatic effect (SRB): MOLT-4, Leukemia; conditions: for GI50 / TGI: 48-hour incubation; for CC50: read-out: LC50, 48-hour incubation
# [10] = test system: CCRF-CEM; assay: In vitro cytostatic effect (SRB): CCRF-CEM, Leukemia; conditions: for CC50: read-out: LC50, 48-hour incubation
# [11] = test system: NCI-H522; assay: In vitro cytostatic effect (SRB): NCI-H522, Lung cancer; conditions: for GI50 / TGI: 48-hour incubation; for CC50: read-out: LC50, 48-hour incubation
# [12] = test system: NCI-H460; assay: In vitro cytostatic effect (SRB): NCI-H460, Lung cancer; conditions: for GI50 / TGI: 48-hour incubation; for CC50: read-out: LC50, 48-hour incubation
# [13] = test system: MALME-3M; assay: In vitro cytostatic effect (SRB): MALME-3M, Melanoma; conditions: for GI50 / TGI: 48-hour incubation; for CC50: read-out: LC50, 48-hour incubation
# [14] = test system: TK-10; assay: In vitro cytostatic effect (SRB): TK-10, Kidney cancer; conditions: for GI50 / TGI: 48-hour incubation; for CC50: read-out: LC50, 48-hour incubation
# [15] = test system: SR; assay: In vitro cytostatic effect (SRB): SR, Leukemia; conditions: for CC50: read-out: LC50, 48-hour incubation
# [16] = test system: HT29; assay: In vitro cytostatic effect (SRB): HT29, Intestinal cancer; conditions: for GI50 / TGI: 48-hour incubation; for CC50: read-out: LC50, 48-hour incubation
# [17] = test system: HL-60(TB); conditions: for GI50 / TGI: Leukemia, 48-hour incubation; for CC50: read-out: LC50, Leukemia, 48-hour incubation
# [18] = test system: SF-268; assay: In vitro cytostatic effect (SRB): SF-268, Cancer of the central nervous system; conditions: for GI50 / TGI: 48-hour incubation; for CC50: read-out: LC50, 48-hour incubation
# [19] = test system: SK-MEL-2; assay: In vitro cytostatic effect (SRB): SK-MEL-2, Melanoma; conditions: for GI50 / TGI: 48-hour incubation; for CC50: read-out: LC50, 48-hour incubation
# [20] = test system: SK-MEL-5; assay: In vitro cytostatic effect (SRB): SK-MEL-5, Melanoma; conditions: for GI50 / TGI: 48-hour incubation; for CC50: read-out: LC50, 48-hour incubation
# [21] = test system: CAKI-1; assay: In vitro cytostatic effect (SRB): CAKI-1, Kidney cancer; conditions: for GI50 / TGI: 48-hour incubation; for CC50: read-out: LC50, 48-hour incubation
# [22] = test system: MDA-MB-435; assay: In vitro cytostatic effect (SRB): MDA-MB-435, Breast cancer; conditions: for GI50 / TGI: 48-hour incubation; for CC50: read-out: LC50, 48-hour incubation
# [23] = test system: OVCAR-5; assay: In vitro cytostatic effect (SRB): OVCAR-5, Ovarian cancer; conditions: for GI50 / TGI: 48-hour incubation; for CC50: read-out: LC50, 48-hour incubation
# [24] = test system: NCI-H23; assay: In vitro cytostatic effect (SRB): NCI-H23, Lung cancer; conditions: for GI50 / TGI: 48-hour incubation; for CC50: read-out: LC50, 48-hour incubation
# [25] = test system: MDA-MB-231/ATCC; assay: In vitro cytostatic effect (SRB): MDA-MB-231/ATCC, Breast cancer; conditions: for GI50 / TGI: 48-hour incubation; for CC50: read-out: LC50, 48-hour incubation
# [26] = test system: HS 578T; assay: In vitro cytostatic effect (SRB): HS 578T, Breast cancer; conditions: for GI50 / TGI: 48-hour incubation; for CC50: read-out: LC50, 48-hour incubation
# [27] = test system: HCC-2998; assay: In vitro cytostatic effect (SRB): HCC-2998, Intestinal cancer
# [28] = test system: HOP-92; assay: In vitro cytostatic effect (SRB): HOP-92, Lung cancer
# [29] = read-out: LC50, 48-hour incubation
compound,measurement,setting,value
"Nc1ccn(C2CCC(COP(=O)(O)OCC(O)COP(=O)(O)OCC3OC(n4cc(F)c(=O)[nH]c4=O)CC3O)O2)c(=O)n1 (racemic) [NSC 704533, 2′,3′-didesoxycytidylyl-(5′→1)-racglycerylyl-(3→5′)-5-fluoro-2′-desoxyuridine]",GI50,[1],0.25 µM
same,TGI,[1],>1.00E − 04 mol/l
same,CC50,[1],> 100 µM
same,GI50,[2],2.57 µM
same,TGI,[2],>1.00E − 04 mol/l
same,CC50,[2],> 100 µM
same,GI50,[3],0.173 µM
same,TGI,[3],>1.00E − 04 mol/l
same,CC50,[3],> 100 µM
same,GI50,[4],0.374 µM
same,TGI,[4],>1.00E − 04 mol/l
same,CC50,[4],> 100 µM
same,GI50,[5],0.0101 µM
same,TGI,[5],>1.00E − 04 mol/l
same,CC50,[5],> 100 µM
same,GI50,[6],0.0216 µM
same,TGI,[6],>1.00E − 04 mol/l
same,CC50,[6],> 100 µM
same,GI50,[7],2.28 µM
same,TGI,[7],>1.00E − 04 mol/l
same,CC50,[7],> 100 µM
same,GI50,[8],1.42 µM
same,TGI,[8],>1.00E − 04 mol/l
same,CC50,[8],> 100 µM
same,GI50,[9],0.104 µM
same,TGI,[9],>1.00E − 04 mol/l
same,CC50,[9],> 100 µM
same,TGI,[10]; 48-hour incubation,>1.00E − 04 mol/l
same,CC50,[10],> 100 µM
same,GI50,[11],0.746 µM
same,TGI,[11],>1.00E − 04 mol/l
same,CC50,[11],> 100 µM
same,GI50,[12],< 0.01 µM
same,TGI,[12],>1.00E − 04 mol/l
same,CC50,[12],> 100 µM
same,GI50,[13],> 100 µM
same,TGI,[13],>1.00E − 04 mol/l
same,CC50,[13],> 100 µM
same,GI50,[14],6.25 µM
same,TGI,[14],>1.00E − 04 mol/l
same,CC50,[14],> 100 µM
same,GI50,[15]; 48-hour incubation,< 0.01 µM
same,TGI,[15]; 48-hour incubation,>1.00E − 04 mol/l
same,CC50,[15],> 100 µM
same,GI50,[16],1.88 µM
same,TGI,[16],>1.00E − 04 mol/l
same,CC50,[16],> 100 µM
same,GI50,[17],0.0715 µM
same,TGI,[17],>1.00E − 04 mol/l
same,CC50,[17],> 100 µM
same,GI50,[18],< 0.01 µM
same,TGI,[18],>1.00E − 04 mol/l
same,CC50,[18],> 100 µM
same,GI50,[19],79.4 µM
same,TGI,[19],>1.00E − 04 mol/l
same,CC50,[19],> 100 µM
same,GI50,[20],0.689 µM
same,TGI,[20],>1.00E − 04 mol/l
same,CC50,[20],> 100 µM
same,GI50,[21],1.44 µM
same,TGI,[21],>1.00E − 04 mol/l
same,CC50,[21],> 100 µM
same,GI50,[22],4.76 µM
same,TGI,[22],>1.00E − 04 mol/l
same,CC50,[22],> 100 µM
same,GI50,[23],12.6 µM
same,TGI,[23],>1.00E − 04 mol/l
same,CC50,[23],> 100 µM
same,GI50,[24],0.0979 µM
same,TGI,[24],>1.00E − 04 mol/l
same,CC50,[24],> 100 µM
same,GI50,[25],95.5 µM
same,TGI,[25],>1.00E − 04 mol/l
same,CC50,[25],> 100 µM
same,GI50,[26],0.732 µM
same,TGI,[26],>1.00E − 04 mol/l
same,CC50,[26],> 100 µM
"CCCCCCCCCCCCCCCCCCOC(COP(=O)(O)OCC1OC(n2cc(F)c(=O)[nH]c2=O)CC1O)COP(=O)(O)OCC1OC(n2ccc(N)nc2=O)C(O)C1O (racemic) [NSC 698688-A/1, arabinocytidylyl-(5′→1)-2-O-octadecyl-rac-glycerylyl-(3→5′)-5-fluoro-2′-deoxyuridine]",GI50,[1],0.919 µM
same,TGI,[1],2.37E − 05 mol/l
same,CC50,[1],64.1 µM
same,GI50,[2],3.35 µM
same,TGI,[2],>1.00E − 04 mol/l
same,CC50,[2],> 100 µM
same,GI50,[3],13.3 µM
same,TGI,[3],>1.00E − 04 mol/l
same,CC50,[3],> 100 µM
same,GI50,[4],4.9 µM
same,TGI,[4],>1.00E − 04 mol/l
same,CC50,[4],> 100 µM
same,GI50,[5],1.4 µM
same,TGI,[5],>1.00E − 04 mol/l
same,CC50,[5],> 100 µM
same,GI50,[6],0.488 µM
same,TGI,[6],1.03E − 05 mol/l
same,CC50,[6],80.3 µM
same,GI50,[7],11.5 µM
same,TGI,[7],8.64E − 05 mol/l
same,CC50,[7],> 100 µM
same,GI50,[8],> 100 µM
same,TGI,[8],>1.00E − 04 mol/l
same,CC50,[8],> 100 µM
same,GI50,[9],0.467 µM
same,TGI,[9],>1.00E − 04 mol/l
same,CC50,[9],> 100 µM
same,GI50,[10]; 48-hour incubation,1.28 µM
same,TGI,[10]; 48-hour incubation,>1.00E − 04 mol/l
same,CC50,[10],> 100 µM
same,GI50,[11],16.2 µM
same,TGI,[11],>1.00E − 04 mol/l
same,CC50,[11],> 100 µM
same,GI50,[12],0.0466 µM
same,TGI,[12],2.79E − 05 mol/l
same,CC50,[12],> 100 µM
same,GI50,[13],> 100 µM
same,TGI,[13],>1.00E − 04 mol/l
same,CC50,[13],> 100 µM
same,GI50,[14],22.9 µM
same,TGI,[14],>1.00E − 04 mol/l
same,CC50,[14],> 100 µM
same,TGI,[15]; 48-hour incubation,>1.00E − 04 mol/l
same,CC50,[15],> 100 µM
same,GI50,[16],12.5 µM
same,TGI,[16],>1.00E − 04 mol/l
same,CC50,[16],> 100 µM
same,GI50,[17],3.66 µM
same,TGI,[17],>1.00E − 04 mol/l
same,CC50,[17],> 100 µM
same,GI50,[27]; 48-hour incubation,0.0588 µM
same,TGI,[27]; 48-hour incubation,3.50E − 05 mol/l
same,CC50,[27]; [29],> 100 µM
same,GI50,[18],0.745 µM
same,TGI,[18],>1.00E − 04 mol/l
same,CC50,[18],> 100 µM
same,GI50,[19],> 100 µM
same,TGI,[19],>1.00E − 04 mol/l
same,CC50,[19],> 100 µM
same,GI50,[20],> 100 µM
same,TGI,[20],>1.00E − 04 mol/l
same,CC50,[20],> 100 µM
same,GI50,[21],10.4 µM
same,TGI,[21],>1.00E − 04 mol/l
same,CC50,[21],> 100 µM
same,GI50,[22],33.8 µM
same,TGI,[22],>1.00E − 04 mol/l
same,CC50,[22],> 100 µM
same,GI50,[23],89.6 µM
same,TGI,[23],>1.00E − 04 mol/l
same,CC50,[23],> 100 µM
same,GI50,[24],7.23 µM
same,TGI,[24],>1.00E − 04 mol/l
same,CC50,[24],> 100 µM
same,GI50,[25],> 100 µM
same,TGI,[25],>1.00E − 04 mol/l
same,CC50,[25],> 100 µM
same,GI50,[26],> 100 µM
same,TGI,[26],>1.00E − 04 mol/l
same,CC50,[26],> 100 µM
same,GI50,[28]; 48-hour incubation,0.0802 µM
same,TGI,[28]; 48-hour incubation,8.99E − 05 mol/l
same,CC50,[28]; [29],> 100 µM
